Results reported in US7851467B2, “Carbamate compounds as 5-HT4 receptor agonists” (Theravance, Inc., priority 2005, dated 2010).

Biological target: T1, human 5-HT3A receptor (Homo sapiens, UniProt P46098)
T1 construct: host or cells: HEK-293
T1 sequence (P46098 24-478): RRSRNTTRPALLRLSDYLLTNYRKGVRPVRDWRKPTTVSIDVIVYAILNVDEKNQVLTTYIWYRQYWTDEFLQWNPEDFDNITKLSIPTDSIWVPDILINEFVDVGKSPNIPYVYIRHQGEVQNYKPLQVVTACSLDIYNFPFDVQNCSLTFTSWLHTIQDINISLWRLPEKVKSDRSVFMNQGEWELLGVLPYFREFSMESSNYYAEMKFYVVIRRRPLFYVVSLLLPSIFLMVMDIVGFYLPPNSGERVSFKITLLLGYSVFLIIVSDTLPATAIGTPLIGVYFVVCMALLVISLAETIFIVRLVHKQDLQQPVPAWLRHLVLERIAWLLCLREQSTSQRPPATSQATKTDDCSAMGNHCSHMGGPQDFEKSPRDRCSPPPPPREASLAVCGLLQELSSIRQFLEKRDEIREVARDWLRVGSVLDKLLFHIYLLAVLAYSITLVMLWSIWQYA
Experiment: Radioligand binding assay on 5-HT3A human receptors: determination of receptor subtype selectivity
Settings: [3H]-GR65630 at 0.50 nM for 5-HT3A
Description: Assay 2: Radioligand Binding Assay on 5-HT3A Human Receptors: Determination of Receptor Subtype Selectivity
a. Membrane Preparation 5-HT3A
HEK-293 (human embryonic kidney) cells stably-transfected with human 5-HT3A receptor cDNA were obtained from Dr. Michael Bruess (University of Bonn, […]) (Bmax=˜[…] protein, as determined using [^3H]-GR65630 membrane radioligand binding assay). […]
Radioligand binding assays were performed in 96-well polypropylene assay plates in a total assay volume of 200 μL containing 1.5-2 μg membrane protein in 50 mM HEPES pH 7.4, containing 0.025% BSA assay buffer. […] Non-specific binding was determined in the presence of 10 μM unlabeled MDL72222. […] Filter plates were washed three times with filtration buffer (ice-cold 50 mM HEPES, pH7.4) to remove unbound radioactivity. Plates were dried, 35 μL Microscint-20 liquid scintillation fluid (Packard BioScience Co., Meriden, Conn.) was added to each well and plates were counted in a Packard Topcount liquid scintillation counter (Packard BioScience Co., Meriden, Conn.).
Binding data were analyzed using the non-linear regression procedure described above to determine Ki values. The BOTTOM (curve minimum) was fixed to the value for nonspecific binding, as determined in the presence of 10 μM MDL72222. The quantity [L] in the Cheng-Prusoff equation was defined as the concentration [^3H]-GR65630. […]

CC(C)n1c(=O)n(C(=O)N[C@H]2C[C@H]3CC[C@@H](C2)N3CCCOC(=O)N2CCN(C(=O)C3CCCO3)CC2)c2ccccc21 (stereo partly drawn) [Example 1, 4-(tetrahydrofuran-2-carbonyl)piperazine-1-carboxylic acid 3-{(1S,3R,5R)-3-[(3-isopropyl-2-oxo-2,3-dihydrobenzoimidazole-1-carbonyl)amino]-8-aza-bicyclo[3.2.1]oct-8-yl}propyl ester]
5-HT4/5-HT3 receptor subtype selectivity, ratio Ki(5-HT3A)/Ki(5-HT4(c)): 160
